In patent publication US20060069132A1, “Azolecarboxamide herbicides” (priority 2004, published 2006):

Columns and labels:
corn = experiment: Test C pre-/postemergence herbicide test; format: in vivo, Zea mays
Method in brief: (§1)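 Visual ratings on a 0–100 scale (100 = complete control) made versus untreated controls after 12 to 14 greenhouse days. Test chemicals, formulated in surfactant-containing non-phytotoxic solvent, applied preemergence to planted seeds or postemergence to 1- to 4-leaf plants (2 to 18 cm).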

kochia = experiment: Test C pre-/postemergence herbicide test; format: in vivo, Kochia scoparia
Method in brief: as §1

common ragweed = experiment: Test C pre-/postemergence herbicide test; format: in vivo, Ambrosia elatior; design: key to Plant response rating, Ragweed: 0 = no effect, 100 = complete control
Method in brief: as §1

velvetleaf = experiment: Test A pre-/postemergence herbicide test; format: in vivo, Abutilon theophrasti
Method in brief: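 Visual injury scores on a 0–100 scale (100 = complete control) taken about ten days post-treatment in greenhouse against untreated controls; dash means no result. Treatments: preemergence soil spray and postemergence spray to runoff on one- to two-leaf plants 2 to 10 cm tall, surfactant-containing formulation.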

morningglory = experiment: Test C pre-/postemergence herbicide test; format: in vivo, Ipomoea coccinea; design: key to Plant response rating, Morningglory: 0 = no effect, 100 = complete control
Method in brief: as §1

giant foxtail = experiment: Test C pre-/postemergence herbicide test; format: in vivo, Setaria faberi
Method in brief: as §1

Surinam grass = experiment: Test C pre-/postemergence herbicide test; format: in vivo, Urochloa decumbens
Method in brief: as §1

soybean = experiment: Test C pre-/postemergence herbicide test; format: in vivo, Glycine max
Method in brief: as §1

[1] = 62 g ai/ha, preemergence, scale 0 to 100
[2] = 125 g ai/ha, scale 0 (no effect) to 100 (complete control), visual, 12 to 14 days, preemergence
[3] = 250 g ai/ha, scale 0-100, preemergence
[4] = 500 g ai/ha, scale 0 to 100 (0 no effect, 100 complete control), visual, 12 to 14 days, preemergence
[5] = Postemergence, 500 g ai/ha, scale 0 to 100
[6] = Postemergence, 250 g ai/ha, scale 0 to 100, 0 no effect, 100 complete control
[7] = postemergence, 125 g ai/ha, scale 0 to 100
[8] = postemergence, 62 g ai/ha, scale 0 to 100

SMILES: C=CCNC(=O)c1cccc(NC(=O)c2cc(C(C)(C)C)nn2C)n1 [Compound 318]
- Plant response rating, Corn (corn; [1]): 0
- Plant response rating, Corn (corn; [2]): 0
- Plant response rating, Corn (corn; [3]): 10
- Plant response rating, Corn (corn; [4]): 40
- Corn plant response rating (corn; [5]): 25
- Plant response rating, Corn (corn; [6]): 10
- Plant response rating, Corn (corn; [7]): 10
- Plant response rating, Corn (corn; [8]): 0
- Plant response rating, Kochia (kochia; [1]): 10
- Plant response rating, Kochia (kochia; [2]): 60
- Plant response rating, Kochia (kochia; [3]): 85
- Plant response rating, Kochia (kochia; [4]): 100
- Kochia plant response rating (kochia; [5]): 60
- Plant response rating, Kochia (kochia; [6]): 60
- Plant response rating, Kochia (kochia; [7]): 10
- Plant response rating, Kochia (kochia; [8]): 0
- Plant response rating, Ragweed (common ragweed; [1]): 0
- Plant response rating, Ragweed (common ragweed; [3]): 70
- Plant response rating, Ragweed (common ragweed; [4]): 70
- Ragweed plant response rating (common ragweed; [5]): 0
- Plant response rating, Ragweed (common ragweed; [6]): 0
- Plant response rating, Ragweed (common ragweed; [7]): 0
- Plant response rating, Ragweed (common ragweed; [8]): 0
- Velvetleaf plant response rating (velvetleaf; Postemergence, 500 g ai/ha, 0 to 100 scale, 0 no effect, 100 complete control): 40
- Plant response rating, Velvetleaf (velvetleaf; Postemergence, 2000 g ai/ha, 0 to 100 scale, 0 no effect, 100 complete control): 50
- Velvetleaf plant response rating (velvetleaf; Preemergence, 2000 g ai/ha, visual rating, 0 to 100 scale (0 no effect, 100 complete control)): 80
- Velvetleaf plant response rating (velvetleaf; preemergence, 500 g ai/ha, visual injury, 0 to 100 scale (0 no effect, 100 complete control)): 30
- Plant response rating, Morningglory (morningglory; [1]): 0
- Plant response rating, Morningglory (morningglory; [2]): 0
- Plant response rating, Morningglory (morningglory; [3]): 0
- Plant response rating, Morningglory (morningglory; [4]): 85
- Morningglory plant response rating (morningglory; [5]): 0
- Plant response rating, Morningglory (morningglory; [6]): 0
- Plant response rating, Morningglory (morningglory; [7]): 0
- Plant response rating, Morningglory (morningglory; [8]): 0
- Plant response rating, Foxtail, Giant (giant foxtail; [1]): 0
- Plant response rating, Foxtail, Giant (giant foxtail; [2]): 10
- Plant response rating, Foxtail, Giant (giant foxtail; [3]): 50
- Plant response rating, Foxtail, Giant (giant foxtail; [4]): 80
- Foxtail, Giant plant response rating (giant foxtail; [5]): 10
- Plant response rating, Foxtail, Giant (giant foxtail; [6]): 5
- Plant response rating, Foxtail, Giant (giant foxtail; [7]): 0
- Plant response rating, Foxtail, Giant (giant foxtail; [8]): 0
- Plant response rating, Surinam Grass (Surinam grass; [1]): 10
- Plant response rating, Surinam Grass (Surinam grass; [3]): 50
- Plant response rating, Surinam Grass (Surinam grass; [4]): 60
- Surinam Grass plant response rating (Surinam grass; [5]): 10
- Plant response rating, Surinam Grass (Surinam grass; [6]): 0
- Plant response rating, Surinam Grass (Surinam grass; [7]): 0
- Plant response rating, Surinam Grass (Surinam grass; [8]): 0
- Plant response rating, Soybean (soybean; [1]): 0
- Plant response rating, Soybean (soybean; [3]): 10
- Plant response rating, Soybean (soybean; [4]): 40
- Soybean plant response rating (soybean; [5]): 90
- Plant response rating, Soybean (soybean; [6]): 80
- Plant response rating, Soybean (soybean; [7]): 70
- Plant response rating, Soybean (soybean; [8]): 65
